Measured values: patent publication US20250206724A1, “SUBSTITUTED 3-AMINO INDAZOLE DERIVATIVES AS KINASE INHIBITORS” (NERVIANO MEDICAL SCIENCES S.R.L., priority 2022, published 2025)
Counter-ions that a name gives are not always drawn. Like-named read-outs stand apart in the source and are kept apart here.

Key:
MOLM-13 = assay: Cytotoxicity assay (CellTiterGlo, 72 hours treatment), MOLM-13; type: cell-based, Human; conditions: MOLM-13 acute myeloid leukemia cells, ATP determination, read-out: Cell line IC50 MOLM-13
Protocol: (§1) Cell Lines and Cell Cultures
(§2) All cell lines were seeded at a density ranging from 2,400 to 8,000 cells/well in 384-well cell culture microplates and incubated at […] in a humidified 5% […] atmosphere 24 hours before treatment. Compound solutions were directly administered to the cells using the D300e digital dispenser (Tecan) to obtain scalar final concentrations ranging from 5 nM to 10 μM (duplicate wells for each point), with 80 uL final volume per well. The final DMSO concentration in test wells was adjusted to 0.1% (v/v); control wells were mock-treated and contained the same final concentration of DMSO.
(§3) Cell viability was determined after 72 hours treatment by ATP determination in each test well with a luciferase-based detection system (CellTiterGlo, Promega, Madison, WI, USA), following manufacturer's instructions. The intensity of emitted light was measured using an EnVision reader (PerkinElmer, Waltham, MA USA) and expressed as RLU. One to three independent experiments were performed for each cell line, as indicated.
(§4) Analysis of Antiproliferative Data
(§5) Cell growth inhibitory activity was evaluated comparing treated versus control data using the Assay Explorer software suite (Symix Technologies Inc.). IC50s values were calculated by sigmoidal fitting interpolation using the following quadriparametric Hill equation: […]
(§6) The Top, Bottom and Hill slope parameters were left free to assume any value, but only curves whose Hill slope had values between 0.5 and 4 were arbitrarily considered acceptable and used to calculate the average IC50s. Curves too steep (HillSlope≥4) or too slight (HillSlope≤0.5) were not included (Table C).

CDK11A = target: T1, CDK11A (Homo sapiens, UniProt Q9UQ88); conditions: displacement of SNS-032-Atto590 probe (0.002 μM) from CDK11A-p58 (0.032 uM), fluorescence polarization;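 further: compound preincubated 30 min with CDK11A-p58, then probe added and polarization (mP) read 15 min later, 0% displacement is probe plus enzyme, 100% is probe alone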
T1 sequence (Q9UQ88 346-783): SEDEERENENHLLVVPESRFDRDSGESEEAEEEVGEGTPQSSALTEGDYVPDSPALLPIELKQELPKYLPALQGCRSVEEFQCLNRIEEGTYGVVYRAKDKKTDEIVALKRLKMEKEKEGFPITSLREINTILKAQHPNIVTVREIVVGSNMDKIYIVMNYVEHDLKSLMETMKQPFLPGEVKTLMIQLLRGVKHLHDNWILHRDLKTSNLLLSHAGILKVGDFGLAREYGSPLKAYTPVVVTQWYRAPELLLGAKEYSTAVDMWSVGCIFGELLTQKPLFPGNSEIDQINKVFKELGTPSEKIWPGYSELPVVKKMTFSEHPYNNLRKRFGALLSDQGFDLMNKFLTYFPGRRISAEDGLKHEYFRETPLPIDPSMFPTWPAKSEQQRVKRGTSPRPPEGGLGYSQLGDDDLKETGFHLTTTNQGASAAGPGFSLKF

NB-4 = assay: Cytotoxicity assay (CellTiterGlo, 72 hours treatment), NB-4; type: cell-based, Human; conditions: NB-4 acute myeloid leukemia cells, ATP determination, read-out: Cell line IC50 NB-4
Protocol: as §1, §2, §3, §4, §5, §6

EoL-1-cell = assay: Cytotoxicity assay (CellTiterGlo, 72 hours treatment), EoL-1; type: cell-based, Human; conditions: ATP determination, read-out: Cell line IC50 EoL-1-cell
Protocol: as §1, §2, §3, §4, §5, §6

[1] = Homo sapiens, EOL1, 72 h, EoL-1 acute myeloid leukemia cells
[2] = EoL-1 acute myeloid leukemia cells

DC50 (CDK11A) [nM]	Compound	IC50 (MOLM-13; Homo sapiens, MOLM-13, 72 h) [nM]	IC50 (NB-4; Homo sapiens, NB-4, 72 h) [nM]	IC50 (EoL-1-cell; [1]) [nM]	IC50 (MOLM-13) [nM]	IC50 (NB-4) [nM]	IC50 (EoL-1-cell; [2]) [nM]	IC50 (MOLM-13; Homo sapiens) [nM]	IC50 (NB-4; Homo sapiens) [nM]	IC50 (EoL-1-cell; Homo sapiens, EOL1, EoL-1 acute myeloid leukemia cells) [nM]
30	N#Cc1ccc(Cl)c(-c2ccc3[nH]nc(NC(=O)[C@@H]4CCC5(CCCC5)NC4)c3c2)c1 (single isomer, unassigned) [compound 204, (8+)-N-[5-(2-Chloro-5-cyanophenyl)-1H-indazol-3-yl]-6-azaspiro[4.5]decane-8-carboxamide hydrochloride]	194	211	237						
23	N#Cc1ccc(Cl)c(-c2ccc3[nH]nc(NC(=O)[C@@H]4CCC5(CCCCC5)NC4)c3c2)c1 (single isomer, unassigned) [compound 206, (3+)-N-[5-(2-Chloro-5-cyanophenyl)-1H-indazol-3-yl]-1-azaspiro[5.5]undecane-3-carboxamide]	194	205	180						
15	CC1(C)CCC(C(=O)Nc2n[nH]c3ccc(-c4cc(C#N)ccc4Cl)cc23)CN1 (single isomer, unassigned; (+)) [compound 202, (+)-N-[5-(2-Chloro-5-cyanophenyl)-1H-indazol-3-yl]-6,6-dimethylpiperidine-3-carboxamide]				77	56	73			
181	CC1(C)CCC(C(=O)Nc2n[nH]c3ccc(-c4cc(C#N)ccc4Cl)cc23)CN1 (single isomer, unassigned; (-)) [compound 203, (−)-N-[5-(2-Chloro-5-cyanophenyl)-1H-indazol-3-yl]-6,6-dimethylpiperidine-3-carboxamide]				1380	1320	1250			
44	CNC1CC(C(=O)Nc2n[nH]c3ccc(-c4c(Cl)cccc4Cl)cc23)C1 (stereo not drawn) [compound 145, N-[5-(2,6-Dichlorophenyl)-1H-indazol-3-yl]-3-(methylamino)cyclobutanecarboxamide hydrochloride]	483	520	663						
31	CCNC1CC(C(=O)Nc2n[nH]c3ccc(-c4cc(C#N)ccc4Cl)cc23)C1 (stereo not drawn) [compound 152, N-[5-(2-Chloro-5-cyanophenyl)-1H-indazol-3-yl]-3-(ethylamino)cyclobutanecarboxamide hydrochloride]	203	226	191						
59	O=C(Nc1n[nH]c2ccc(-c3c(Cl)cccc3Cl)cc12)C1CCCNC1 (stereo not drawn) [compound 157, N-[5-(2,6-Dichlorophenyl)-1H-indazol-3-yl]piperidine-3-carboxamide hydrochloride]	521	512	590						
36	O=C(Nc1n[nH]c2ccc(-c3c(F)cccc3Cl)cc12)C1CCCNC1 (stereo not drawn) [compound 165, N-[5-(2-Chloro-6-fluorophenyl)-1H-indazol-3-yl]piperidine-3-carboxamide hydrochloride]	463	629	484						
27	O=C(Nc1n[nH]c2ccc(-c3c(Cl)cccc3Cl)cc12)[C@@H]1CCNC1 [compound 167, (3R)-N-[5-(2,6-Dichlorophenyl)-1H-indazol-3-yl]pyrrolidine-3-carboxamide hydrochloride]	610	525	651						
21	O=C(Nc1n[nH]c2ccc(-c3c(Cl)cccc3Cl)cc12)[C@@H]1CCCNC1 [compound 169, (3R)-N-[5-(2,6-Dichlorophenyl)-1H-indazol-3-yl]piperidine-3-carboxamide hydrochloride]	219	317	281						
28	N#Cc1ccc(Cl)c(-c2ccc3[nH]nc(NC(=O)C4CCCNC4)c3c2)c1 (stereo not drawn) [compound 171, N-[5-(2-Chloro-5-cyanophenyl)-1H-indazol-3-yl]piperidine-3-carboxamide hydrochloride]	520	416	332						
23	N#Cc1ccc(Cl)c(-c2ccc3[nH]nc(NC(=O)[C@@H]4CCCNC4)c3c2)c1 [compound 174, (3R)-N-[5-(2-Chloro-5-cyanophenyl)-1H-indazol-3-yl]piperidine-3-carboxamide hydrochloride]	190	171	165						
18	N#Cc1ccc(Cl)c(-c2ccc3[nH]nc(NC(=O)[C@@H]4CCNC4)c3c2)c1 [compound 176, (3R)-N-[5-(2-Chloro-5-cyanophenyl)-1H-indazol-3-yl]pyrrolidine-3-carboxamide hydrochloride]	505	384	425						
21	C[C@@H]1CC[C@@H](C(=O)Nc2n[nH]c3ccc(-c4cc(C#N)ccc4Cl)cc23)CN1 [compound 179, (3R,6R)-N-[5-(2-Chloro-5-cyanophenyl)-1H-indazol-3-yl]-6-methylpiperidine-3-carboxamide trifluoroacetate]	414	335	259						
29	CC1(C)CCC(C(=O)Nc2n[nH]c3ccc(-c4cc(C#N)ccc4Cl)cc23)CN1 (stereo not drawn) [compound 184, N-[5-(2-Chloro-5-cyanophenyl)-1H-indazol-3-yl]-6,6-dimethylpiperidine-3-carboxamide hydrochloride]	164	151	160						
21	N#Cc1ccc(Cl)c(-c2ccc3[nH]nc(NC(=O)C4CCC5(CCCC5)NC4)c3c2)c1 (stereo not drawn) [compound 185, N-[5-(2-Chloro-5-cyanophenyl)-1H-indazol-3-yl]-6-azaspiro[4.5]decane-8-carboxamide hydrochloride]	261	204	294						
65	N#Cc1ccc(Cl)c(-c2ccc3[nH]nc(NC(=O)C4CCC5(CCCCC5)NC4)c3c2)c1 (stereo not drawn) [compound 186, N-[5-(2-Chloro-5-cyanophenyl)-1H-indazol-3-yl]-1-azaspiro[5.5]undecane-3-carboxamide hydrochloride]	303	365	315						
43	Cc1ccc(C#N)cc1-c1ccc2[nH]nc(NC(=O)[C@@H]3CCCNC3)c2c1 [cpd 24, (3R)-N-[5-(5-Cyano-2-methylphenyl)-1H-indazol-3-yl]piperidine-3-carboxamide hydrochloride]	563	595	423						
31	N#Cc1ccc(F)c(-c2ccc3[nH]nc(NC(=O)[C@@H]4CCCNC4)c3c2)c1 [cpd 25, (3R)-N-[5-(5-Cyano-2-fluorophenyl)-1H-indazol-3-yl]piperidine-3-carboxamide hydrochloride]	2860	1660	1720						
23	Cc1ccc(F)c(-c2ccc3[nH]nc(NC(=O)[C@@H]4CCCNC4)c3c2)c1 [cpd 32, (3R)-N-[5-(2-Fluoro-5-methylphenyl)-1H-indazol-3-yl]piperidine-3-carboxamide hydrochloride]	1510	2480	2040						

Compound	DC50 (CDK11A) [nM]	IC50 (MOLM-13; Homo sapiens, MOLM-13, 72 h) [nM]	IC50 (NB-4; Homo sapiens, NB-4, 72 h) [nM]	IC50 (EoL-1-cell; [1]) [nM]	IC50 (MOLM-13) [nM]	IC50 (NB-4) [nM]	IC50 (EoL-1-cell; [2]) [nM]	IC50 (MOLM-13; Homo sapiens) [nM]	IC50 (NB-4; Homo sapiens) [nM]	IC50 (EoL-1-cell; Homo sapiens, EOL1, EoL-1 acute myeloid leukemia cells) [nM]
O=C(Nc1n[nH]c2ccc(-c3cc([N+](=O)[O-])ccc3Cl)cc12)[C@@H]1CCCNC1 [cpd 26, (3R)-N-[5-(2-Chloro-5-nitrophenyl)-1H-indazol-3-yl]piperidine-3-carboxamide hydrochloride]	23							154	141	126
